The IC50 is the concentration at which inhibition is half-maximal.

Among the data in patent EP2039702A2, “Prodrugs erbeta-selective substances, method for their production and pharmaceutical compounds containing these compositions” (Bayer Schering Pharma Aktiengesellschaft, priority 2005, dated 2007) are IC50 values, retold here.

This assay deals with humaner Carboanhydrase II (Homo sapiens, UniProt P00918). The assay can be described thus: Carbonic anhydrase inhibition, photometric, nitrophenyl acetate conversion on microtitre plates. The following applies: humane Carboanhydrase II; read-out: CAII IC50. Type of assay: biochemical. The source says: Photometrische Bestimmung der Hemmung von humaner Carboanhydrase I oder II durch Sulfonamide oder Sulfamate auf Mikrotiterplatten mit Hilfe der enzymatischen Umwandlung von Nitrophenylacetat mit einem Farbumschlag von farblos nach gelb. Tabelle 1: IC50 Hemmwerte humaner Carboanhydrase I und II

In the case of `C[C@]12CC[C@@H]3c4ccc(OS(N)(=O)=O)cc4CC[C@H]3[C@@H]1CC[C@@H]2O` [Estradiol-3-sulfamat], the IC50 worked out at 21.6 ± 1.5 nM.
